Reference: patent publication US20240366770A1, “DEGRADATION OF BRUTON'S TYROSINE KINASE (BTK) BY CONJUGATION OF BTK INHIBITORS WITH E3 LIGASE LIGAND AND METHODS OF USE” (BeiGene Switzerland GmbH, priority 2021, published 2024)
pIC50: −log10 of the molar value.

Experiments:
BTK = molecular target: T1, BTK (Homo sapiens, UniProt Q06187); test: BTK degradation in TMD-8 cells (HTRF assay); format: cell-based; settings: 6 h treatment, IC50 (DC50) of BTK degradation
T1 construct: High control=Cell group with added DMSO and without compound, indicating microplate readings without BTK degradation; endogenous in cells; host or cells: TMD-8
T1 sequence (Q06187 whole entry): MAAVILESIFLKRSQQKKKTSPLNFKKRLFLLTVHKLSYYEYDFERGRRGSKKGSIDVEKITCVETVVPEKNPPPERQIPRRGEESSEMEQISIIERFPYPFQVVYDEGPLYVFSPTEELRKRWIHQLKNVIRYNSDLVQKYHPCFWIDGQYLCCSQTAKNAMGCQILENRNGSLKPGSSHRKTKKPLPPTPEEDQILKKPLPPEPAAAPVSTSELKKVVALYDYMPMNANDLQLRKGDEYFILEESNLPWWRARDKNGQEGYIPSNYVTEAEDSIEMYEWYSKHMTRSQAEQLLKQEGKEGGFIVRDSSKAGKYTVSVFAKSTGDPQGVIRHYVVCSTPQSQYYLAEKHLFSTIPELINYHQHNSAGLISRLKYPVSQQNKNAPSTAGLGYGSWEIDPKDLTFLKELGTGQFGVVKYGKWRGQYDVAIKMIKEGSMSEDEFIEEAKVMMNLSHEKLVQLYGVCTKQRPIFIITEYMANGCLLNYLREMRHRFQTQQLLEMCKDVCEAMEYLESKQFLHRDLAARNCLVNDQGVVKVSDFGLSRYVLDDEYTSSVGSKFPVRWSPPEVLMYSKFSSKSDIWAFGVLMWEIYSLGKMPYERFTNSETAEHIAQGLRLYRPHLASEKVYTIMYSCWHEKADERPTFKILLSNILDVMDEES
Procedure: (§1) TMD-8 cells were treated with compounds diluted in 0.2% DMSO, dilution was done according to the following protocol: (1) making 500× stock solution in DMSO from 1 mM by 6-fold dilution, total 8 doses were included; (2) making 2× solution in cell culture medium by transferring 0.5 μl 500× stock solution into 125 μl medium; (3) adding 15 μl of 2× solution to cells for incubation of 6 h.
After 6 h treatment, 10 μl 4× lysis buffer was added to each well; the plate was sealed and incubated for 30 min at room temperature on a plate shaker; Once the cells was lysed, 16 μL of cell lysate were transferred to a PE 384-well HTRF detection plate; 4 μL of pre-mixed HTRF antibodies were added to each well; the plate was covered with a plate sealer, and then spinned at 1000 rpm for 1 min, then incubated overnight at room temperature; the results were read on BMG PheraStar with HTRF protocol (337 nm-665 nm-620 nm).
The IC50 (DC50) value of a compound can be obtained by fitting the following equation
(§2) wherein, X and Y are known values, and IC50, Hillslope, Top and Bottom are the parameters obtained by fitting with software. Y is the inhibition percentage (calculated from the equation), X is the concentration of the compound; IC50 is the concentration of the compound when the 50% inhibition is reached. The smaller the IC50 value is, the stronger the inhibitory ability of the compound is. Vice versa, the higher the IC50 value is, the weaker the ability the inhibitory ability of the compound is; Hillslope represents the slope of the fitted curve, generally around 1 *; Bottom represents the minimum value of the curve obtained by data fitting, which is generally 0%±20%; Top represents the maximum value of the curve obtained by data fitting, which is generally 100%±20%. The experimental data were fitted by calculating and analyzing with Dotmatics data analysis software.

HEK-293 cells = test: HEK-293 cytotoxicity detection (CellTiter-Glo); format: cell-based; settings: Homo sapiens; HEK-293 cells, 72 h incubation, CellTiter-Glo luminescence, IC50 of cell proliferation inhibition; read-out: HEK293
Procedure: as §1, with “HEK-293 cells” for “TMD-8 cells”, “from 5” for “from 1”, “by 4-fold” for “by 6-fold”, “0.5 ul” for “0.5 μl”, “adding 50” for “adding 15”, “of 72” for “of 6”
25 μl of the CellTiter-Glo®Reagent [(Promega) -Cat No. G7572] was added to each well in the 96-well plate. The contents were mixed for 2 minutes on an orbital shaker to induce cell lysis. The plate was then allowed to incubate at room temperature for 10 minutes to stabilize luminescent signal. Luminescence was recorded on BMG PheraStar with luminescence protocol.
The IC50 value of a compound can be obtained by fitting the following equation
as §2, with “Wherein,” for “wherein,”

| SMILES | DC50 (BTK) [nM] | pIC50 (HEK-293 cells) |
| --- | --- | --- |
| COc1cc2c(cc1N1CCN(C3CC(c4ccc([C@@H]5CCC(=O)NC5=O)cc4)C3)CC1)[nH]c1ncnc(-c3ccc([C@@H](C)NC(=O)c4nc(C(C)(C)C)no4)c(C)c3)c12 (stereo partly drawn) [Example 49, 3-(tert-butyl)-N—((R)-1-(4-(7-(4-(3-(4-((S)-2,6-dioxopiperidin-3-yl)phenyl)cyclobutyl)piperazin-1-yl)-6-methoxy-9H-pyrimido[4,5-b]indol-4-yl)-2-methylphenyl)ethyl)-1,2,4-oxadiazole-5-carboxamide] | 1.08 | < 5.00 |
| Cc1cc(-c2ncnc3[nH]c4cc(N5CCN(CC6CCN(c7ccc(N8CCC(=O)NC8=O)cc7)CC6)CC5)ccc4c23)c(F)cc1[C@@H](C)NC(=O)c1nc(C(C)(C)C)no1 [Example 23, (R)-3-(tert-butyl)-N-(1-(4-(7-(4-((1-(4-(2,4-dioxotetrahydropyrimidin-1(2H)-yl)phenyl)piperidin-4-yl)methyl)piperazin-1-yl)-9H-pyrimido[4,5-b]indol-4-yl)-5-fluoro-2-methylphenyl)ethyl)-1,2,4-oxadiazole-5-carboxamide] | 0.608 | 5.54 |
| Cc1c([C@@H](C)NC(=O)c2noc(C(C)(C)C)n2)ccc(-c2ncnc3[nH]c4cc(N5CCN(CC6CCN(Cc7ccc8c(c7)C(C)(C)C(=O)N8C7CCC(=O)NC7=O)CC6)CC5)ccc4c23)c1F (stereo partly drawn) [Example 98, 5-(tert-butyl)-N-((1R)-1-(4-(7-(4-((1-((1-(2,6-dioxopiperidin-3-yl)-3,3-dimethyl-2-oxoindolin-5-yl)methyl)piperidin-4-yl)methyl)piperazin-1-yl)-9H-pyrimido[4,5-b]indol-4-yl)-3-fluoro-2-methylphenyl)ethyl)-1,2,4-oxadiazole-3-carboxamide] | 1.97 | 5.14 |
| C[C@@H](NC(=O)c1nc(C(C)(C)C)no1)C1CCN(c2ncnc3[nH]c4cc(N5CCN(CC6CCN(c7ccc(N8CCC(=O)NC8=O)cc7)CC6)CC5)ccc4c23)CC1 [Example 130, (R)-3-(tert-butyl)-N-(1-(1-(7-(4-((1-(4-(2,4-dioxotetrahydropyrimidin-1(2H)-yl)phenyl)piperidin-4-yl)methyl)piperazin-1-yl)-9H-pyrimido[4,5-b]indol-4-yl)piperidin-4-yl)ethyl)-1,2,4-oxadiazole-5-carboxamide] | 63.2 | < 5.00 |
| Cc1c([C@@H](C)NC(=O)c2noc(C(C)(C)C)n2)ccc(-c2ncnc3[nH]c4cc(N5CCN(Cc6ccc(SC7CCC(=O)NC7=O)cc6)CC5)ccc4c23)c1F (stereo partly drawn) [Example 88, 5-(tert-butyl)-N-((1R)-1-(4-(7-(4-(4-((2,6-dioxopiperidin-3-yl)thio)benzyl)piperazin-1-yl)-9H-pyrimido[4,5-b]indol-4-yl)-3-fluoro-2-methylphenyl)ethyl)-1,2,4-oxadiazole-3-carboxamide] | > 2000 | < 5.00 |
| COc1cc2c(cc1N1CCN(C3CC(c4ccc([C@H]5CCC(=O)NC5=O)cc4)C3)CC1)[nH]c1ncnc(-c3ccc([C@@H](C)NC(=O)c4nc(C(C)(C)C)no4)c(C)c3F)c12 (stereo partly drawn) [Example 56, 3-(tert-butyl)-N—((R)-1-(4-(7-(4-(3-(4-((R)-2,6-dioxopiperidin-3-yl)phenyl)cyclobutyl)piperazin-1-yl)-6-methoxy-9H-pyrimido[4,5-b]indol-4-yl)-3-fluoro-2-methylphenyl)ethyl)-1,2,4-oxadiazole-5-carboxamide] | 10.3 | < 5.00 |
| Cc1cc2c(cc1N1CCN(CC3CCN(c4ccc(N5CCC(=O)NC5=O)cc4)CC3)CC1)[nH]c1ncnc(-c3ccc([C@@H](C)NC(=O)c4noc(C(C)(C)C)n4)c(C)c3F)c12 [Example 45, (R)-5-(tert-butyl)-N-(1-(4-(7-(4-((1-(4-(2,4-dioxotetrahydropyrimidin-1(2H)-yl)phenyl)piperidin-4-yl)methyl)piperazin-1-yl)-6-methyl-9H-pyrimido[4,5-b]indol-4-yl)-3-fluoro-2-methylphenyl)ethyl)-1,2,4-oxadiazole-3-carboxamide] | 1.05 | < 5.00 |
| COc1cc2c(cc1N1CCN(CC3CCN(c4ccc(N5CCC(=O)NC5=O)cc4)CC3)CC1)[nH]c1ncnc(-c3ccc([C@@H](C)NC(=O)c4nc(C5(C)CC5)no4)c(C)c3F)c12 [Example 53, (R)—N-(1-(4-(7-(4-((1-(4-(2,4-dioxotetrahydropyrimidin-1(2H)-yl)phenyl)piperidin-4-yl)methyl)piperazin-1-yl)-6-methoxy-9H-pyrimido[4,5-b]indol-4-yl)-3-fluoro-2-methylphenyl)ethyl)-3-(1-methylcyclopropyl)-1,2,4-oxadiazole-5-carboxamide] | 2.26 | < 5.00 |
| Cc1cc(-c2ncnc3[nH]c4cc(C5CCN(C6CC(c7ccc([C@H]8CCC(=O)NC8=O)cc7)C6)C5)ccc4c23)ccc1[C@@H](C)NC(=O)c1nc(C(C)(C)C)no1 (stereo partly drawn) [Example 20, 3-(tert-butyl)-N-((1R)-1-(4-(7-(1-(3-(4-((R)-2,6-dioxopiperidin-3-yl)phenyl)cyclobutyl)pyrrolidin-3-yl)-9H-pyrimido[4,5-b]indol-4-yl)-2-methylphenyl)ethyl)-1,2,4-oxadiazole-5-carboxamide] | 1.3 | 5.45 |
| COc1cc2c(cc1N1CCN(C3CCN(c4cccc(C5CCC(=O)NC5=O)c4)C3)CC1)[nH]c1ncnc(-c3ccc([C@@H](C)NC(=O)c4nc(C(C)(C)C)no4)c(C)c3)c12 (stereo partly drawn) [Example 51, 3-(tert-butyl)-N-((1R)-1-(4-(7-(4-(1-(3-(2,6-dioxopiperidin-3-yl)phenyl)pyrrolidin-3-yl)piperazin-1-yl)-6-methoxy-9H-pyrimido[4,5-b]indol-4-yl)-2-methylphenyl)ethyl)-1,2,4-oxadiazole-5-carboxamide] | 0.987 | < 5.00 |
| COc1cc2c(cc1N1CCN(CC3CCN(c4ccc(N5CCC(=O)NC5=O)cc4)CC3)CC1)[nH]c1ncnc(-c3ccc([C@@H](C)NC(=O)c4nc(C5(C)CC5)no4)c(C)c3)c12 [Example 52, (R)—N-(1-(4-(7-(4-((1-(4-(2,4-dioxotetrahydropyrimidin-1(2H)-yl)phenyl)piperidin-4-yl)methyl)piperazin-1-yl)-6-methoxy-9H-pyrimido[4,5-b]indol-4-yl)-2-methylphenyl)ethyl)-3-(1-methylcyclopropyl)-1,2,4-oxadiazole-5-carboxamide] | 0.361 | < 5.00 |
| Cc1cc(-c2ncnc3[nH]c4cc(N5CCN(CC6CCN(c7ccc(N8CCC(=O)NC8=O)cn7)CC6)CC5)ccc4c23)ccc1[C@@H](C)NC(=O)c1nc(C(C)(C)C)no1 [Example 7, (R)-3-(tert-butyl)-N-(1-(4-(7-(4-((1-(5-(2,4-dioxotetrahydropyrimidin-1(2H)-yl)pyridin-2-yl)piperidin-4-yl)methyl)piperazin-1-yl)-9H-pyrimido[4,5-b]indol-4-yl)-2-methylphenyl)ethyl)-1,2,4-oxadiazole-5-carboxamide] | 1.27 | < 5.00 |
| COc1cc2c(cc1N1CCN(Cc3ccc4c(c3)C(C)(C)C(=O)N4C3CCC(=O)NC3=O)CC1)[nH]c1ncnc(-c3ccc([C@@H](C)NC(=O)c4nc(C(C)(C)C)no4)c(C)c3)c12 (stereo partly drawn) [Example 73, 3-(tert-butyl)-N-((1R)-1-(4-(7-(4-((1-(2,6-dioxopiperidin-3-yl)-3,3-dimethyl-2-oxoindolin-5-yl)methyl)piperazin-1-yl)-6-methoxy-9H-pyrimido[4,5-b]indol-4-yl)-2-methylphenyl)ethyl)-1,2,4-oxadiazole-5-carboxamide] | 1.27 | < 5.00 |
